# According to PMC3226492, “Isomer Profiles of Perfluorochemicals in Matched Maternal, Cord, and House Dust Samples: Manufacturing Sources and Transplacental Transfer” (Environmental Health Perspectives, 2011):
# Read-outs that look alike come from different tables or passages of the source.
# Columns and labels:
# [1] = Transplacental transfer efficiency (TTE): cord serum at delivery divided by maternal serum concentration, present study; assay type: in vivo, human; details: for Mean cord:maternal serum concentration: Present study
# [2] = Total PFC concentrations in maternal and cord sera by HPLC-MS/MS; assay type: in vivo, human
# Method: Blood collection. Samples (n = 20) analyzed in this study are a subset of the Chemicals, Health and Pregnancy (CHirP) cohort recruited in 2007–2008 in Vancouver (BC, Canada) ([Webster et al. 2011]). All participants provided informed consent. Laboratory personnel collected blood samples from pregnant volunteers in Vancouver at 15 weeks of gestation, and samples of cord blood (n = 20) were collected at delivery. After serum separation, all samples were stored at –80°C. Ethical clearance was obtained from the research ethics boards of the University of British Columbia, the University of Alberta, Health Canada, and the three participating hospitals.
# Serum preparation. The method of [Kuklenyik et al. (2004)] was adapted for the extraction of PFCs from serum using a Rapid Trace system (Caliper Life Sciences, Hopkinton, MA, USA). The solid-phase extraction cartridge (Oasis-HLB, Waters, Milford, MA, USA; 60 mg/3 mL) was conditioned with 2 mL methanol followed by 2 mL of 0.1 M formic acid. Serum was prepared for extraction by mixing 3 mL of 0.1 M formic acid with 1.0 mL serum. After the addition of mass-labeled internal standards (10 ng each), the mixture was vortexed and sonicated for 20 min. Prepared serum was added to the column and washed successively with 3 mL of 0.1 M formic acid, 6 mL of 50% 0.1 M formic acid/50% methanol, and 1 mL of 1% ammonium hydroxide. The cartridge was drained by vacuum, and PFCs were eluted with 1.0 mL of 1% ammonium hydroxide in acetonitrile. The eluate was concentrated to 100 μL followed by the addition of 200 μL of 90% 20 mM acetic acid in 10% methanol. Method blanks containing calf serum, a calf serum sample spiked at 0.5 ng/mL of each PFC, and a human serum sample spiked at 10 ng/mL were analyzed with the study samples.
# Total PFC analysis. For total PFC concentrations, separation was by HPLC on a 150-mm Synergi Hydro-RP C-18 column (Phenomenex, Torrance, CA, USA). Gradient elution at 600 μL/min used A [20 mM ammonium acetate (pH 4) in water] and B (methanol) mobile phases. Initial conditions were 60% A for 1 min, ramped to 20% A by 3 min, a 5-min hold, an increase to 100% B by 8.5 min, and a hold until 14 min, at which time initial conditions were reestablished. MS/MS data were collected on an Applied Biosystems API 3000 mass spectrometer (Applied Biosystems, Carlsbad, CA, USA) using electrospray ionization in negative-ion mode [for mean recoveries of total PFCs in serum and dust, see Supplemental Material, Table 1 (http://dx.doi.org/10.1289/ehp.1003265)].
# [3] = cited from earlier work
# [4] = cord serum at delivery / maternal serum at 15 weeks of gestation
structure (smiles),measurement,setting,value
"O=S(=O)(O)C(F)(F)C(F)(F)C(F)(F)C(F)(F)C(F)(F)C(F)(F)C(F)(F)C(F)(F)F [Total PFOS, perfluorooctane sulfonate]",Mean cord:maternal serum concentration,"[1]; Canada, 2007, n 20, maternal serum sampled in the second trimester",0.33
same,Mean cord:maternal serum concentration,[1]; TTE adjusted from 15 weeks to time of delivery (~ 40 weeks) using data from Monroy et al. (2008),0.36
same,"TTE calculated from cord:maternal serum concentrations, arithmetic mean",[1]; [4],0.33
same,"TTE calculated from cord:maternal serum concentrations, maximum",[1]; [4],0.53
same,"TTE calculated from cord:maternal serum concentrations, median",[1]; [4],0.31
same,"TTE calculated from cord:maternal serum concentrations, minimum",[1]; [4],0.20
same,mean concentration in cord serum,[2]; cord serum at delivery,1.8 ng/mL
same,mean concentration in maternal serum,"[2]; maternal serum, 15 weeks of gestation",5.5 ng/mL
same,Mean cord:maternal serum concentration,"[3]; Canada, 2004–2005, n 101, ref Monroy et al. 2008",0.45
same,Mean cord:maternal serum concentration,"[3]; Denmark, 1996–2002, n 50, maternal serum sampled in the first trimester, ref Fei et al. 2007",0.29
same,Mean cord:maternal serum concentration,"[3]; Denmark, 1996–2002, n 50, maternal serum sampled in the second trimester, ref Fei et al. 2007",0.34
same,Mean cord:maternal serum concentration,"[3]; Faroe Islands, 2000, n 12, ref Needham et al. 2011",0.34
same,Mean cord:maternal serum concentration,"[3]; Germany, 2003, n 11, ref Midasch et al. 2007",0.60
same,Mean cord:maternal serum concentration,"[3]; Germany, 2007–2009, n 27, ref Fromme et al. 2010",0.30
same,Mean cord:maternal serum concentration,"[3]; Japan, 2003, n 15, ref Inoue et al. 2004",0.32
same,Mean cord:maternal serum concentration,"[3]; Korea, 2007, n 20, ref Kim et al. 2011",0.36
same,Mean cord:maternal serum concentration,"[3]; South Africa, 2005–2006, n 58, ref Hanssen et al. 2010",0.45
